# Calls of active or inactive are those of the source. The calls are words filed in the database; no cut-off is given here.
# Tests used:
# [1] = system: Streptococcus parasanguinis; experiment: Antibacterial activity against […] ATCC 903 assessed as effect on growth at 5 to 20 ug/ml after 24 hrs by microplate reader analysis; format: functional
# Streptococcus oralis = experiment: Antibacterial activity against Streptococcus oralis SK23 assessed as effect on growth at 5 to 20 ug/ml after 24 hrs by microplate reader analysis; format: functional; conditions: ATCC 35037
# Streptococcus sobrinus = experiment: Antibacterial activity against Streptococcus sobrinus MT10186 assessed as effect on growth at 5 to 20 ug/ml after 24 hrs by microplate reader analysis; format: functional, organism-based
# Porphyromonas gingivalis [2] = experiment: Antibacterial activity against Porphyromonas gingivalis ATCC 33277 assessed as growth inhibition at 10 to 20 ug/ml after 100 hrs by microplate reader analysis; format: functional, organism-based
# Streptococcus mutans [3] = experiment: Antibacterial activity against Streptococcus mutans MT8148 assessed as growth inhibition at 20 ug/ml after 24 hrs by microplate reader analysis; format: functional, organism-based
# Porphyromonas gingivalis [4] = experiment: Antibacterial activity against Porphyromonas gingivalis ATCC 33277 assessed as growth inhibition at 5 to 20 ug/ml after 100 hrs by microplate reader analysis; format: functional, organism-based
# Streptococcus mutans [5] = experiment: Antibacterial activity against Streptococcus mutans MT8148 assessed as growth inhibition at 5 to 20 ug/ml after 24 hrs by microplate reader analysis; format: functional, organism-based
SMILES,Activity [1],Activity (Streptococcus oralis),Activity (Streptococcus sobrinus),growth inhibition (GI) (Porphyromonas gingivalis [2]),growth inhibition (GI) (Streptococcus mutans [3]),growth inhibition (GI) (Porphyromonas gingivalis [4]),growth inhibition (GI) (Streptococcus mutans [5])
CC12CC(=O)O[C@H]3CC1CC[C@]32C,inactive,inactive,inactive,–,–,–,–
C=C[C@@]1(C)CC[C@]2(OC(=O)C=C2C)O1,inactive,inactive,inactive,–,–,–,–
C=C(C)C(=O)CCC1(C)C2CC3C(C2)C31C (stereo unspecified),inactive,inactive,inactive,Active,Active,–,–
CC(C)(O)/C=C/CC1(C)C2CC3C(C2)C31C (stereo unspecified),inactive,inactive,inactive,–,–,inactive,inactive
